Measured values from US12264156B2, “Compounds and pharmaceutical compositions thereof for the treatment of diseases” (GALAPAGOS NV, priority 2018, dated 2025).

Tested on: LPS triggered IL-10 secretion in monocytes
Assay: Monocytes assay: LPS-triggered IL-10 (ELISA)
Assay type: cell-based, human
Details: LPS 200 ng/mL, supernatant after 4 h, maximal fold change vs LPS only
Method in brief: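 Human CD14+ monocytes, magnetically isolated from buffy-coat PBMCs, were seeded at 100 000 cells/well and preincubated with compound for 1 h at 37° C (0.2% DMSO). LPS was then added at a final 200 ng/mL for 4 h. Supernatant IL-10 was quantified by chemiluminescent sandwich ELISA against a standard curve.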

SMILES | IL-10 FCmax median
COc1cc(-c2cnc3cc(OCCN4CC(F)(F)C4)ccn23)cc2c1C(=O)N(CC(F)(F)F)CC2 [Cpd 244, 6-[7-[2-(3,3-difluoroazetidin-1-yl)ethoxy]imidazo[1,2-a]pyridin-3-yl]-8-methoxy-2-(2,2,2-trifluoroethyl)-3,4-dihydroisoquinolin-1-one] | +++ (>4.5)
COc1cc(-c2cnc3cc(OCCCN4CCNCC4)ccn23)cc(OC(F)F)c1C(=O)NC1CC1 [compound 278, N-cyclopropyl-2-(difluoromethoxy)-6-methoxy-4-[7-(3-piperazin-1-ylpropoxy)imidazo[1,2-a]pyridin-3-yl]benzamide] | ++ (>1.5-4.5)
COc1cc(-c2cnc3cc(OCCCN4CCCC4)ccn23)cc(OC(F)F)c1C(=O)NC1CC1 [compound 275, N-cyclopropyl-2-(difluoromethoxy)-6-methoxy-4-[7-(3-pyrrolidin-1-ylpropoxy)imidazo[1,2-a]pyridin-3-yl]benzamide] | +++ (>4.5)
COc1cc(-c2cnc3cc(OCCOCCN4CCCCC4)ccn23)cc(OC(F)F)c1C(=O)NC1CC1 [compound 305] | +++ (>4.5)
COc1cc(-c2cnc3cc(OCC4(F)CN(C(=O)OC(C)(C)C)C4)ccn23)cc2c1C(=O)N(CC(F)(F)F)CC2 [compound 248, tert-butyl 3-fluoro-3-[[3-[8-methoxy-1-oxo-2-(2,2,2-trifluoroethyl)-3,4-dihydroisoquinolin-6-yl]imidazo[1,2-a]pyridin-7-yl]oxymethyl]azetidine-1-carboxylate] | +++ (>4.5)
COc1cc(-c2cnc3cc(OCC(O)CN4CCOCC4)ccn23)cc(OC(F)F)c1C(=O)NC1CC1 (single isomer, unassigned) [Cpd 387, N-cyclopropyl-2-(difluoromethoxy)-4-[7-(2-hydroxy-3-morpholino-propoxy)imidazo[1,2-a]pyridin-3-yl]-6-methoxy-benzamide] | +++ (>4.5)
COc1cc(-c2cnc3cc(OCCN4CCOC[C@@H]4C)ccn23)cc(OC(F)F)c1C(=O)NC1CC1 [compound 233, N-cyclopropyl-2-(difluoromethoxy)-6-methoxy-4-[7-[2-[(3S)-3-methylmorpholin-4-yl]ethoxy]imidazo[1,2-a]pyridin-3-yl]benzamide] | +++ (>4.5)
COc1cc(-c2cnc3cc(OCCCN4CCCC(O)C4)ccn23)cc(OC(F)F)c1C(=O)NC1CC1 (stereo not drawn) [compound 328, N-cyclopropyl-2-(difluoromethoxy)-4-[7-[3-(3-hydroxy-1-piperidyl)propoxy]imidazo [1,2-a]pyridin-3-yl]-6-methoxy-benzamide] | +++ (>4.5)
COc1cc(-c2cnc3cc(OCCCN4CCS(=O)(=O)CC4)ccn23)cc(OC(F)F)c1C(=O)NC1CC1 [Cpd 331, N-cyclopropyl-2-(difluoromethoxy)-4-[7-[3-(1,1-dioxo-1,4-thiazinan-4-yl)propoxy]imidazo[1,2-a]pyridin-3-yl]-6-methoxy-benzamide] | +++ (>4.5)
CCOC(=O)C1(F)CCN(CC(O)COc2ccn3c(-c4cc(OC)c(C(=O)NC5CC5)c(OC(F)F)c4)cnc3c2)CC1 (stereo not drawn) [compound 384, ethyl 1-[3-[3-[4-(cyclopropylcarbamoyl)-3-(difluoromethoxy)-5-methoxy-phenyl]imidazo[1,2-a]pyridin-7-yl]oxy-2-hydroxy-propyl]-4-fluoro-piperidine-4-carboxylate] | ++ (>1.5-4.5)
COc1cc(-c2cnc3cc(OCCN4C5CCC4COC5)ccn23)cc(OC(F)F)c1C(=O)NC1CC1 [compound 193, N-cyclopropyl-2-(difluoromethoxy)-6-methoxy-4-[7-[2-(3-oxa-8-azabicyclo [3.2.1]octan-8-yl)ethoxy]imidazo[1,2-a]pyridin-3-yl]benzamide] | +++ (>4.5)
COc1cc(-c2cnc3cc(OCCN4CCOC[C@H]4C)ccn23)cc(OC(F)F)c1C(=O)NC1CC1 [compound 234, N-cyclopropyl-2-(difluoromethoxy)-6-methoxy-4-[7-[2-[(3R)-3-methylmorpholin-4-yl]ethoxy]imidazo[1,2-a]pyridin-3-yl]benzamide] | +++ (>4.5)
CCOC(=O)C1(F)CCN(CCOc2ccn3c(-c4cc(OC)c(C(=O)NC5CC5)c(OC(F)F)c4)cnc3c2)CC1 [compound 390, ethyl 1-[2-[3-[4-(cyclopropylcarbamoyl)-3-(difluoromethoxy)-5-methoxy-phenyl]imidazo[1,2-a]pyridin-7-yl]oxyethyl]-4-fluoro-piperidine-4-carboxylate] | +++ (>4.5)
COc1cc(-c2cnc3cc(OCCCN4CCC5(CC4)CN(C)C(=O)O5)ccn23)cc(OC(F)F)c1C(=O)NC1CC1 [compound 325, N-cyclopropyl-2-(difluoromethoxy)-6-methoxy-4-[7-[3-(3-methyl-2-oxo-1-oxa-3,8-diazaspiro[4.5]decan-8-yl)propoxy]imidazo[1,2-a]pyridin-3-yl]benzamide] | ++ (>1.5-4.5)
COc1cc(-c2cnc3cc(OCCN4CCOCC4)ccn23)cc2c1C(=O)N(CC(F)F)CC2 [compound 218, 2-(2,2-difluoroethyl)-8-methoxy-6-[7-(2-morpholinoethoxy)imidazo [1,2-a]pyridin-3-yl]-3,4-dihydroisoquinolin-1-one] | +++ (>4.5)
COc1cc(-c2cnc3cc(OCCCN4CCC5(CC4)CNC(=O)O5)ccn23)cc(OC(F)F)c1C(=O)NC1CC1 [Cpd 324, N-cyclopropyl-2-(difluoromethoxy)-6-methoxy-4-[7-[3-(2-oxo-1-oxa-3,8-diazaspiro[4.5]decan-8-yl)propoxy]imidazo[1,2-a]pyridin-3-yl]benzamide] | ++ (>1.5-4.5)
COc1cc(-c2cnc3cc(OC[C@H]4COCCO4)ccn23)cc2c1C(=O)N(CC(F)F)CC2 [compound 219, 2-(2,2-difluoroethyl)-6-[7-[[(2R)-1,4-dioxan-2-yl]methoxy]imidazo[1,2-a]pyridin-3-yl]-8-methoxy-3,4-dihydroisoquinolin-1-one] | +++ (>4.5)
COc1cc(-c2cnc3cc(OCC(O)CN4CCCCC4)ccn23)cc(OC(F)F)c1C(=O)NC1CC1 (stereo not drawn) [Cpd 321, N-cyclopropyl-2-(difluoromethoxy)-4-[7-[2-hydroxy-3-(1-piperidyl)propoxy]imidazo [1,2-a]pyridin-3-yl]-6-methoxy-benzamide] | +++ (>4.5)
COc1cc(-c2cnc3cc(OCCCN4CC(O)C4)ccn23)cc(OC(F)F)c1C(=O)NC1CC1 [Cpd 286, N-cyclopropyl-2-(difluoromethoxy)-4-[7-[3-(3-hydroxyazetidin-1-yl)propoxy]imidazo[1,2-a]pyridin-3-yl]-6-methoxy-benzamide] | ++ (>1.5-4.5)
COc1cc(-c2cnc3cc(OCC(O)CN4CCOCC4)ccn23)cc(OC(F)F)c1C(=O)NC1CC1 (single isomer, unassigned) [Cpd 386, N-cyclopropyl-2-(difluoromethoxy)-4-[7-(2-hydroxy-3-morpholino-propoxy)imidazo[1,2-a]pyridin-3-yl]-6-methoxy-benzamide] | +++ (>4.5)
COc1cc(-c2cnc3cc(OCc4nncn4C)ccn23)cc(OC(F)F)c1C(=O)NC1CC1 [compound 227, N-cyclopropyl-2-(difluoromethoxy)-6-methoxy-4-[7-[(4-methyl-1,2,4-triazol-3-yl)methoxy]imidazo[1,2-a]pyridin-3-yl]benzamide] | ++ (>1.5-4.5)
